Measured values from US7138361B2, “Herbicidal heterocycles” (E. I. du Pont de Nemours and Company, priority 2000, dated 2006).

How the values were obtained:
Assay type in all cases: in vivo
[1] = system: giant foxtail (Setaria faberii); test: Test C preemergence; details: for Plant response rating, Foxtail, Giant: scale 0 to 100, 0 no effect, 100 complete control; for Plant response rating (0 to 100), Foxtail, Giant: preemergence, visual evaluation after 12 to 14 days
In short: (§1)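 Plants held in greenhouse for 12–14 days post-application are scored by eye against controls on a 0–100 control scale. Application timing: preemergence on sown seed, or postemergence on 2–18 cm plants.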

[2] = system: common ragweed (Ambrosia elatior); test: Test C preemergence; details: for Plant response rating, Ragweed, Common: scale 0 to 100, 0 no effect, 100 complete control
In short: as §1

[3] = system: Sunflower; test: Test C preemergence; details: Rate 125 g/ha; scale 0 to 100, 0 no effect, 100 complete control
[4] = system: bermudagrass (Cynodon dactylon); test: Test C preemergence; details: for Plant response rating, Bermudagrass: scale 0 to 100, 0 no effect, 100 complete control; for Plant response rating (0 to 100 where 0 is no effect and 100 is complete control), Bermudagrass: preemergence, visual evaluation after 12 to 14 days
In short: as §1

[5] = system: goosegrass (Eleusine indica); test: Test C preemergence; details: for Plant response rating, Goosegrass: scale 0 to 100, 0 no effect, 100 complete control; for Plant response rating (0 to 100), Goosegrass: preemergence, visual evaluation after 12 to 14 days
In short: as §1

[6] = system: yellow nutsedge (Cyperus esculentus); test: Test C preemergence; details: for Plant response rating, Nutsedge: scale 0 to 100, 0 no effect, 100 complete control
In short: as §1

[7] = system: velvetleaf (Abutilon theophrasti); test: Test C preemergence; details: for Plant response rating, Velvetleaf: scale 0 to 100, 0 no effect, 100 complete control
In short: as §1

[8] = system: woolly cupgrass (Eriochloa villosa); test: Test C preemergence; details: for Plant response rating, Cupgrass, Woolly: scale 0 to 100, 0 no effect, 100 complete control; for Plant response rating (0 to 100), Cupgrass, Woolly: preemergence, visual evaluation after 12 to 14 days
In short: as §1

[9] = system: Surinam grass (Brachiaria decumbens); test: Test C preemergence; details: for Plant response rating, Surinam grass: scale 0 to 100, 0 no effect, 100 complete control; for Plant response rating (0 to 100), Surinam grass: preemergence, visual evaluation after 12 to 14 days
In short: as §1

[10] = system: pigweed (Amaranthus retroflexus); test: Test C preemergence; details: for Plant response rating, Pigweed: scale 0 to 100, 0 no effect, 100 complete control
In short: as §1

[11] = system: kochia (Kochia scoparia); test: Test C preemergence; details: for Plant response rating, Kochia: scale 0 to 100, 0 no effect, 100 complete control; for Plant response rating (0 to 100), Kochia: preemergence, visual evaluation after 12 to 14 days
In short: as §1

[12] = system: lambsquarters (Chenopodium album); test: Test C preemergence; details: for Plant response rating, Lambsquarters: scale 0 to 100, 0 no effect, 100 complete control
In short: as §1

[13] = system: morningglory (Ipomoea hederacea); test: Test C preemergence; details: for Plant response rating, Morningglory: scale 0 to 100, 0 no effect, 100 complete control
In short: as §1

[14] = system: johnsongrass (Sorghum halepense); test: Test C preemergence; details: for Plant response rating, Johnsongrass: scale 0 to 100, 0 no effect, 100 complete control; for Plant response rating (0 to 100), Johnsongrass: preemergence, visual evaluation after 12 to 14 days
In short: as §1

[15] = system: soybean (Glycine max); test: Test C preemergence; details: for Plant response rating, Soybean: scale 0 to 100, 0 no effect, 100 complete control
In short: as §1

[16] = system: cocklebur (Xanthium strumarium); test: Test C preemergence; details: for Plant response rating, Cocklebur: scale 0 to 100, 0 no effect, 100 complete control; for Plant response rating (0 to 100), Cocklebur: preemergence, visual evaluation after 12 to 14 days
In short: as §1

[17] = system: crabgrass (Digitaria sanguinalis); test: Test C preemergence; details: for Plant response rating, Crabgrass: scale 0 to 100, 0 no effect, 100 complete control; for Plant response rating (0 to 100), Crabgrass: preemergence, visual evaluation after 12 to 14 days
In short: as §1

[18] = system: Nightshade; test: Test C preemergence; details: scale 0 to 100, 0 no effect, 100 complete control
[19] = system: corn (Zea mays); test: Test C preemergence; details: for Plant response rating, Corn: scale 0 to 100, 0 no effect, 100 complete control; for Plant response rating (0 to 100), Corn: preemergence, visual evaluation after 12 to 14 days
In short: as §1

[20] = system: Sunflower; test: Test C preemergence; details: Rate 500 g/ha, visual evaluation after 12 to 14 days
[21] = system: barnyardgrass (Echinochloa crus-galli); test: Test C flooded paddy test; details: for Barnyardgrass plant response rating: Flooded Paddy, scale 0 to 100, 0 no effect, 100 complete control; for Plant response rating, Barnyardgrass: flooded paddy test, scale 0 to 100 (0 no effect, 100 complete control)
In short: (§2)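 Visually assessed vs untreated controls 12–14 d post-treatment (greenhouse). Flooded paddy plants were at the 2-leaf stage; scale 0 = no effect, 100 = complete control.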

[22] = system: rice (Oryza saliva); test: Test C flooded paddy test; details: for Rice plant response rating: Flooded Paddy, scale 0 to 100, 0 no effect, 100 complete control; for Plant response rating, Rice: flooded paddy test, scale 0 to 100 (0 no effect, 100 complete control)
In short: as §2

[23] = preemergence, Rate 500 g/ha, visual evaluation after 12 to 14 days

CC(C)(C)c1ccn(C2CCN(c3cccc(OC(F)F)c3)C2=O)n1 (centres unmarked) [Compound 76]
Plant response rating, Foxtail, Giant ([1]; Rate 62 g/ha): 100
Plant response rating, Foxtail, Giant ([1]; Rate 125 g/ha): 100
Plant response rating (0 to 100), Foxtail, Giant ([1]; Rate 250 g/ha): 20
Plant response rating (0 to 100), Foxtail, Giant ([1]; Rate 500 g/ha): 90
Plant response rating, Ragweed, Common ([2]; Rate 125 g/ha): 0
Plant response rating (0 to 100), Ragweed, Common [2, 23]: 0
Plant response rating, Ragweed, Common ([2]; preemergence, Rate 250 g/ha): 0
Plant response rating, Sunflower [3]: 20
Plant response rating, Bermudagrass ([4]; Rate 62 g/ha): 100
Plant response rating, Bermudagrass ([4]; Rate 125 g/ha): 100
Plant response rating (0 to 100 where 0 is no effect and 100 is complete control), Bermudagrass ([4]; Rate 250 g/ha): 100
Plant response rating (0 to 100 where 0 is no effect and 100 is complete control), Bermudagrass ([4]; Rate 500 g/ha): 100
Plant response rating, Goosegrass ([5]; Rate 62 g/ha): 100
Plant response rating, Goosegrass ([5]; Rate 125 g/ha): 100
Plant response rating (0 to 100), Goosegrass ([5]; Rate 250 g/ha): 100
Plant response rating (0 to 100), Goosegrass ([5]; Rate 500 g/ha): 100
Plant response rating, Nutsedge ([6]; Rate 62 g/ha): 0
Plant response rating, Nutsedge ([6]; Rate 125 g/ha): 0
Plant response rating (0 to 100), Nutsedge [6, 23]: 20
Plant response rating, Nutsedge ([6]; preemergence, Rate 250 g/ha): 20
Plant response rating, Velvetleaf ([7]; Rate 125 g/ha): 20
Plant response rating (0 to 100), Velvetleaf [7, 23]: 50
Plant response rating, Velvetleaf ([7]; preemergence, Rate 250 g/ha): 20
Plant response rating, Cupgrass, Woolly ([8]; Rate 62 g/ha): 50
Plant response rating, Cupgrass, Woolly ([8]; Rate 125 g/ha): 100
Plant response rating (0 to 100), Cupgrass, Woolly ([8]; Rate 250 g/ha): 100
Plant response rating (0 to 100), Cupgrass, Woolly ([8]; Rate 500 g/ha): 100
Plant response rating, Surinam grass ([9]; Rate 62 g/ha): 50
Plant response rating, Surinam grass ([9]; Rate 125 g/ha): 60
Plant response rating (0 to 100), Surinam grass ([9]; Rate 250 g/ha): 80
Plant response rating (0 to 100), Surinam grass ([9]; Rate 500 g/ha): 100
Plant response rating, Pigweed ([10]; Rate 125 g/ha): 100
Plant response rating (0 to 100), Pigweed [10, 23]: 100
Plant response rating, Pigweed ([10]; preemergence, Rate 250 g/ha): 0
Plant response rating, Kochia ([11]; Rate 62 g/ha): 100
Plant response rating, Kochia ([11]; Rate 125 g/ha): 100
Plant response rating (0 to 100), Kochia ([11]; Rate 250 g/ha): 100
Plant response rating (0 to 100), Kochia ([11]; Rate 500 g/ha): 100
Plant response rating, Lambsquarters ([12]; Rate 62 g/ha): 100
Plant response rating, Lambsquarters ([12]; Rate 125 g/ha): 100
Plant response rating (0 to 100), Lambsquarters [12, 23]: 100
Plant response rating, Lambsquarters ([12]; preemergence, Rate 250 g/ha): 100
Plant response rating, Morningglory ([13]; Rate 62 g/ha): 10
Plant response rating, Morningglory ([13]; Rate 125 g/ha): 30
Plant response rating (0 to 100), Morningglory [13, 23]: 30
Plant response rating, Morningglory ([13]; preemergence, Rate 250 g/ha): 30
Plant response rating, Johnsongrass ([14]; Rate 62 g/ha): 20
Plant response rating, Johnsongrass ([14]; Rate 125 g/ha): 30
Plant response rating (0 to 100), Johnsongrass ([14]; Rate 250 g/ha): 40
Plant response rating (0 to 100), Johnsongrass ([14]; Rate 500 g/ha): 100
Plant response rating, Soybean ([15]; Rate 125 g/ha): 0
Plant response rating (0 to 100), Soybean [15, 23]: 0
Plant response rating, Soybean ([15]; preemergence, Rate 250 g/ha): 0
Plant response rating, Cocklebur ([16]; Rate 62 g/ha): 0
Plant response rating, Cocklebur ([16]; Rate 125 g/ha): 0
Plant response rating (0 to 100), Cocklebur ([16]; Rate 250 g/ha): 20
Plant response rating (0 to 100), Cocklebur ([16]; Rate 500 g/ha): 20
Plant response rating, Crabgrass ([17]; Rate 62 g/ha): 100
Plant response rating, Crabgrass ([17]; Rate 125 g/ha): 100
Plant response rating (0 to 100), Crabgrass ([17]; Rate 250 g/ha): 100
Plant response rating (0 to 100), Crabgrass ([17]; Rate 500 g/ha): 100
Plant response rating, Nightshade ([18]; Rate 62 g/ha): 0
Plant response rating, Nightshade ([18]; Rate 125 g/ha): 30
Plant response rating, Nightshade ([18]; Rate 250 g/ha): 40
Plant response rating, Corn ([19]; Rate 62 g/ha): 20
Plant response rating, Corn ([19]; Rate 125 g/ha): 20
Plant response rating (0 to 100), Corn ([19]; Rate 250 g/ha): 20
Plant response rating (0 to 100), Corn ([19]; Rate 500 g/ha): 80
Plant response rating (0 to 100), Sunflower [20]: 30
Barnyardgrass plant response rating ([21]; Rate 250 g/ha): 90
Barnyardgrass plant response rating ([21]; Rate 500 g/ha): 90
Plant response rating, Barnyardgrass ([21]; Rate 62 g/ha): 40
Plant response rating, Barnyardgrass ([21]; Rate 125 g/ha): 90
Rice plant response rating ([22]; Rate 250 g/ha): 80
Rice plant response rating ([22]; Rate 500 g/ha): 80
Plant response rating, Rice ([22]; Rate 62 g/ha): 20
Plant response rating, Rice ([22]; Rate 125 g/ha): 40
